Tests used:
[1] = test system: rats of Sprague-Dawley stock; assay: Chronic toxicity; type: in vivo; conditions: Sprague-Dawley rats of both sexes, oral and intravenous way, 50 mg/kg per day for three months
Procedure: The chronic toxicity of the new derivatives has been studied by oral and intravenous way in the rats of Sprague-Dawley stock of both sexes, of body weight of about 210 g. The new derivatives, used as drops or in aqueous solution, have been administred to groups of 10 animals (5 males and 5 females). The tests have been carried out in parallel with equivalent amounts of ubiquinone (hydroalcoholic solution). The doses have been of 50 mg/kg per day for three months.

[2] = Light stability in oral preparations; type: physicochemical

Row | Molecule | toxic effects (chronic toxicity) [1] | stability under the effect of the light [2]
1 | COC1=C(OC)C(=O)C(C/C=C(\C)CC/C=C(\C)CC/C=C(\C)CC/C=C(\C)CC/C=C(\C)CC/C=C(\C)CC/C=C(\C)CC/C=C(\C)CC/C=C(\C)CCC=C(C)C)=C(C)C1=O [ubiquinone, Ubiquinone(10)] | No toxic effects | –
2 | Ubiquinone bisulphite [Example 1] | – | high stability
